Assay results as given in patent US12404265B2, “Substituted pyridine derivatives as SARM1 inhibitors” (Nura Bio, Inc., priority 2020, dated 2025).

What follows are molecules tested against T1, human SARM1(50-724) (Homo sapiens, UniProt Q6SZW1) (assay: SARM1 NADase biochemical assay (HPLC of NAD and NAM)). Conditions: 40 nM human SARM1(50-724), 0.3 mM NMN, 20 μM NAD, 60 minutes room temperature; dose-response from 100 μM, 1:3 dilution.
T1 construct: 40 nM human SARM1(50-724)
T1 sequence (Q6SZW1 50-724): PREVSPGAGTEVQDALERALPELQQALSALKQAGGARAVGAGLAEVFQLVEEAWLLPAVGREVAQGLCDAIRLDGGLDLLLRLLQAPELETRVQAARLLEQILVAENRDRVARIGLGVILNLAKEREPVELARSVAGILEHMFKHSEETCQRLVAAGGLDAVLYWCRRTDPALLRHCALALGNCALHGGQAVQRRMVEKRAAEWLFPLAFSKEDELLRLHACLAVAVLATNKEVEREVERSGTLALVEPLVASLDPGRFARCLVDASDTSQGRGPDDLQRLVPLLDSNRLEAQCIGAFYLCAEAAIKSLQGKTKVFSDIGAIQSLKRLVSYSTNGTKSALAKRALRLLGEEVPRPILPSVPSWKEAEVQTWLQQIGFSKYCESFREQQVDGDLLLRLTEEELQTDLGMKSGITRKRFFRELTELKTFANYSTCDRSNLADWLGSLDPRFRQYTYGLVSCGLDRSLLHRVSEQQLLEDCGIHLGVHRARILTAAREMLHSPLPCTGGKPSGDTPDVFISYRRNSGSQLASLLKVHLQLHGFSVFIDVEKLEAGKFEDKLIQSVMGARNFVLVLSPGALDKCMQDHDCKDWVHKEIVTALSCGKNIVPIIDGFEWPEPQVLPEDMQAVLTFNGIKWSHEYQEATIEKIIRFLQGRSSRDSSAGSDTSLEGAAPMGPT
Experimental: Each reaction was run at a volume of 20 μL containing 50 μM compound (dissolved in DMSO; final concentration of DMSO is 1% v/v), 40 nM human SARM1(50-724), 0.3 mM NMN, 20 μM NAD, 1 mM TCEP, 25 mM HEPES pH 7.4, 10 mM KCl and 10 mM MgCl2. The reaction was incubated at room temperature for 60 minutes and quenched with 20 μL of 0.4% formic acid. The samples were run on Agilent HPLC 1260 Infinity II with Synergi 2.5 μM Fusion-RP 100 Å (100×3.0 mm) LC column from Phenomenex. Total run time for each sample was 4 minutes. The run was isocratic with 1.5% methanol in 40 mM ammonium acetate pH 6.0. Samples were run at a flow rate of 0.8 mL/min at 55° C. Peak areas of NAD and NAM were determined using OpenLAB CDS (Chem Station edition) software. For dose-response, the compound was diluted serially 1:3 in DMSO and added to the reaction starting at a final compound concentration of 100 μM in 1% DMSO.
For `Cc1c(-c2ccncc2)n[nH]c1N(C(=O)CCc1ccc(Cl)cc1)C(=O)CCc1ccccc1Cl` [Example 5, 3-(2-Chlorophenyl)-N-(3-(4-chlorophenyl)propanoyl)-N-(4-methyl-3-(pyridin-4-yl)-1H-pyrazol-5-yl)propanamide], the IC50 was < 1 µM.
For `N#Cc1c(F)cc(CCC(=O)Nc2[nH]nc(-c3ccncc3)c2Cl)cc1F` [Example 128], the IC50 was < 1 µM.
`CC(=O)N(C(=O)CCc1ccc(Cl)cc1)c1[nH]nc(-c2ccncc2)c1C` [Example 1] was tested, and the IC50 was < 1 µM.
`O=C(CCc1ccc(Cl)cc1)Nc1[nH]nc(-c2ccncc2)c1Cl` [Example 96, N-(4-Chloro-3-(pyridin-4-yl)-1H-pyrazol-5-yl)-3-(4-chlorophenyl)propanamide] was tested, and the IC50 was < 1 µM.
With `O=C1CC(c2ccc(Cl)cc2)CC(=O)N1c1cc(-c2ccncc2)n[nH]1` (racemic) [Example 155, (rac)-4-(4-Chlorophenyl)-1-(3-(pyridin-4-yl)-1H-pyrazol-5-yl)piperidine-2,6-dione] the IC50 was < 1 µM.
Molecule `Cc1c(-c2ccncc2)n[nH]c1NC(=O)CCc1ccccc1Cl` [Example 23, 3-(2-Chlorophenyl)-N-(4-methyl-3-(pyridin-4-yl)-1H-pyrazol-5-yl)propanamide] has an IC50 of 1 to 10 µM.
In the case of `Cc1c(-c2ccncc2)n[nH]c1NC(=O)CCc1cc(F)c(C#N)c(F)c1` [Example 65, 3-(4-Cyano-3,5-difluorophenyl)-N-(4-methyl-3-(pyridin-4-yl)-1H-pyrazol-5-yl)propanamide], the IC50 is reported as < 1 µM.
In the case of `Cc1c(-c2ccncc2)n[nH]c1NC(=O)C(F)Cc1ccc(C#N)c(F)c1` (racemic) [Example 70, (rac)-3-(4-Cyano-3-fluorophenyl)-2-fluoro-N-(4-methyl-3-(pyridin-4-yl)-1H-pyrazol-5-yl)propanamide], the IC50 is reported as 1 to 10 µM.
With `Cc1c(-c2ccncc2)n[nH]c1NC(=O)CC1CCc2cc(Cl)ccc21` (centres unmarked) [Example 67, 2-(5-Chloro-2,3-dihydro-1H-inden-1-yl)-N-[4-methyl-3-(pyridin-4-yl)-1H-pyrazol-5-yl]acetamide] the IC50 was < 1 µM.
For `COc1ccc(CCC(=O)Nc2[nH]nc(-c3ccncc3)c2C)cc1` [Example 27, 3-(4-Methoxyphenyl)-N-(4-methyl-3-(pyridin-4-yl)-1H-pyrazol-5-yl)propanamide], the IC50 was 1 to 10 µM.
With `O=C(CCc1cc(F)c(F)c(F)c1)Nc1[nH]nc(-c2ccncc2)c1Cl` [Example 167, N-(4-Chloro-3-(pyridin-4-yl)-1H-pyrazol-5-yl)-3-(3,4,5-trifluorophenyl)propanamide] the IC50 was < 1 µM.
`Cc1c(-c2ccncc2)n[nH]c1N1C(=O)CC(Cc2ccc(Cl)cc2)C1=O` (racemic) [Example 154, (rac)-3-(4-Chlorobenzyl)-1-(4-methyl-3-(pyridin-4-yl)-1H-pyrazol-5-yl)pyrrolidine-2,5-dione] gave an IC50 of 1 to 10 µM.
Work on `Cc1c(N2C(=O)[C@H](Cc3ccc(Cl)cc3)NC2(C)C)cnn1-c1ccncc1` [Example 152, (S)-5-(4-Chlorobenzyl)-2,2-dimethyl-3-(5-methyl-1-(pyridin-4-yl)-1H-pyrazol-4-yl)imidazolidin-4-one] yielded an IC50 of 1 to 10 µM.
For `Cc1cnccc1-c1n[nH]c(NC(=O)CCc2ccc(C#N)c(F)c2)c1C` [Example 112, 3-(4-Cyano-3-fluorophenyl)-N-(4-methyl-3-(3-methylpyridin-4-yl)-1H-pyrazol-5-yl)propanamide], the IC50 was 1 to 10 µM.
`Cc1cnccc1-c1cc(NC(=O)CCc2ccc(Cl)cc2)[nH]n1` [Example 106, 3-(4-Chlorophenyl)-N-(3-(3-methylpyridin-4-yl)-1H-pyrazol-5-yl)propanamide] was tested, and the IC50 was < 1 µM.
In the case of `Cc1c(-c2ccncc2)n[nH]c1NC(=O)/C(F)=C(\F)c1ccc(Cl)cc1` [Example 69, (E)-3-(4-chlorophenyl)-2,3-difluoro-N-(4-methyl-3-(pyridin-4-yl)-1H-pyrazol-5-yl)acrylamide], the IC50 is reported as 1 to 10 µM.
For `O=C1N(Cc2ccc(Cl)cc2)CCN1c1cnn(-c2ccncc2)c1` [Example 158, 1-(4-Chlorobenzyl)-3-(1-(pyridin-4-yl)-1H-pyrazol-4-yl)imidazolidin-2-one], the IC50 was 1 to 10 µM.
`Cc1c(-c2ccncc2)n[nH]c1NC(=O)CCc1ccc(C#N)cc1` [Example 36, 3-(4-Cyanophenyl)-N-(4-methyl-3-(pyridin-4-yl)-1H-pyrazol-5-yl)propanamide] was tested, and the IC50 was < 1 µM.
`Cc1c(-c2ccncc2)n[nH]c1NC(=O)CCc1c(F)c(F)c(F)c(F)c1F` [Example 58, N-(4-Methyl-3-(pyridin-4-yl)-1H-pyrazol-5-yl)-3-(perfluorophenyl)propanamide] was tested, and the IC50 was < 1 µM.
`Cc1c(-c2ccncc2)n[nH]c1NC(=O)NCc1ccc(Cl)cc1` [Example 161, 1-(4-Chlorobenzyl)-3-(4-methyl-3-(pyridin-4-yl)-1H-pyrazol-5-yl)urea] was tested, and the IC50 was < 1 µM.
With `Cc1c(-c2ccncc2)n[nH]c1N(C(=O)CCc1ccccc1)C(=O)CCc1ccc(Cl)cc1` [Example 6, 3-(4-Chlorophenyl)-N-(4-methyl-3-(pyridin-4-yl)-1H-pyrazol-5-yl)-N-(3-phenylpropanoyl)propanamide] the IC50 was < 1 µM.
In the case of `CCc1c(-c2ccncc2)n[nH]c1NC(=O)CCc1ccc(C#N)c(F)c1` [Example 16, 3-(4-Cyano-3-fluorophenyl)-N-(4-ethyl-3-(pyridin-4-yl)-1H-pyrazol-5-yl)propanamide], the IC50 is reported as < 1 µM.
In the case of `O=C(CCc1cc(F)c(Cl)c(F)c1)Nc1cnn(-c2ccncc2)c1` [Example 88, 3-(4-Chloro-3,5-difluorophenyl)-N-[1-(pyridin-4-yl)-1H-pyrazol-4-yl]propanamide], the IC50 is reported as < 1 µM.
`Cc1c(-c2ccncc2)n[nH]c1N1C(=O)CC(c2ccc(Cl)cc2)CC1=O` (racemic) [Example 157, (rac)-4-(4-Chlorophenyl)-1-(4-methyl-3-(pyridin-4-yl)-1H-pyrazol-5-yl)piperidine-2,6-dione] gave an IC50 of 1 to 10 µM.
With `CCc1c(-c2ccncc2)n[nH]c1NC(=O)CCc1ccc(Cl)s1` [Example 17] the IC50 was < 1 µM.
In the case of `Cc1c(-c2ccncc2)n[nH]c1N(C)C(=O)CCc1ccc(Cl)cc1` [Example 139], the IC50 is reported as < 1 µM.
Molecule `Cc1c(-c2ccncc2)n[nH]c1NC(=O)CCc1ncc(Cl)s1` [Example 76] has an IC50 of 1 to 10 µM.
`CCc1c(-c2ccncc2)n[nH]c1NC(=O)CCc1cc(F)c(Cl)c(F)c1` [Example 13, 3-(4-Chloro-3,5-difluorophenyl)-N-(4-ethyl-3-(pyridin-4-yl)-1H-pyrazol-5-yl)propanamide] was tested, and the IC50 was < 1 µM.
For `Cc1c(-c2ccncc2)n[nH]c1NC(=O)CCc1ccc(Cl)c(Cl)c1` [Example 31, 3-(3,4-Dichlorophenyl)-N-(4-methyl-3-(pyridin-4-yl)-1H-pyrazol-5-yl)propanamide], the IC50 was < 1 µM.
`Cc1c(-c2ccncc2)n[nH]c1N(C(=O)CCc1ccc(Cl)cc1)C(=O)CCC(C)C` [Example 7, N-(3-(4-Chlorophenyl)propanoyl)-4-methyl-N-(4-methyl-3-(pyridin-4-yl)-1H-pyrazol-5-yl)pentanamide] was tested, and the IC50 was 1 to 10 µM.
`Cc1c(NC(=O)OCc2ccc(Cl)s2)cnn1-c1ccncc1` [Example 149, (5-Chlorothiophen-2-yl)methyl (5-methyl-1-(pyridin-4-yl)-1H-pyrazol-4-yl)carbamate] gave an IC50 of 1 to 10 µM.
In the case of `N[C@H](Cc1ccc(Cl)cc1)C(=O)Nc1cc(-c2ccncc2)n[nH]1` [Example 151, (R)-2-Amino-3-(4-chlorophenyl)-N-(3-(pyridin-4-yl)-1H-pyrazol-5-yl)propanamide], the IC50 is reported as < 1 µM.
